PubChem BioAssay (NCI)
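A five-concentration, 48-hour dose response in 96-well plates underlies each endpoint, interpolated linearly between surrounding concentrations. TGI denotes the concentration required for complete inhibition of growth.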

How the values were obtained:
Assay in all cases: DTP human tumour cell line panel, 48 h
MDA-N = test system: MDA-N
BT-549 breast = test system: BT-549 breast
PC-3 prostate = test system: PC-3 prostate
SNB-19 CNS = test system: SNB-19 CNS
OVCAR-3 ovarian = test system: OVCAR-3 ovarian
HL-60(TB) leukemia = test system: HL-60(TB) leukemia
SF-268 CNS = test system: SF-268 CNS
SR leukemia = test system: SR leukemia
HT29 colon = test system: HT29 colon
MDA-MB-231 breast = test system: MDA-MB-231 breast
RPMI-8226 leukemia = test system: RPMI-8226 leukemia
M14 melanoma = test system: M14 melanoma
SK-MEL-28 melanoma = test system: SK-MEL-28 melanoma
SW-620 colon = test system: SW-620 colon
OVCAR-4 ovarian = test system: OVCAR-4 ovarian
OVCAR-5 ovarian = test system: OVCAR-5 ovarian

`COc1ccc2[nH]c(C(=O)N3CC(CCl)c4ccc([N+](=O)[O-])cc43)cc2c1` (stereo unspecified) was tested, and the TGI (MDA-N) was greater than 100 µM, the TGI (BT-549 breast) was greater than 100 µM and the TGI (PC-3 prostate) was greater than 100 µM. The TGI (SNB-19 CNS) was greater than 100 µM, the TGI (OVCAR-3 ovarian) was greater than 100 µM and the TGI (HL-60(TB) leukemia) was greater than 100 µM. The TGI (SF-268 CNS) was greater than 100 µM, the TGI (SR leukemia) was greater than 100 µM and the TGI (HT29 colon) was greater than 100 µM. The TGI (MDA-MB-231 breast) was greater than 100 µM, the TGI (RPMI-8226 leukemia) was greater than 100 µM and the TGI (M14 melanoma) was greater than 100 µM. For the same compound, the TGI (SK-MEL-28 melanoma) was greater than 100 µM, the TGI (SW-620 colon) was greater than 100 µM and the TGI (OVCAR-4 ovarian) was greater than 100 µM. It also gave a TGI (OVCAR-5 ovarian) greater than 100 µM.
Compound `Cc1ccnc(NC(=S)Nc2ccccc2Cl)c1` has a TGI (MDA-N) greater than 100 µM, a TGI (BT-549 breast) greater than 100 µM and a TGI (PC-3 prostate) greater than 100 µM. For the same compound, the TGI (SNB-19 CNS) was greater than 100 µM, the TGI (OVCAR-3 ovarian) was greater than 100 µM and the TGI (HL-60(TB) leukemia) was greater than 100 µM. The TGI (SF-268 CNS) was greater than 100 µM, the TGI (SR leukemia) was greater than 100 µM and the TGI (HT29 colon) was greater than 100 µM. The TGI (MDA-MB-231 breast) was 45.7 µM, the TGI (RPMI-8226 leukemia) was greater than 100 µM and the TGI (M14 melanoma) was greater than 100 µM. For the same compound, the TGI (SK-MEL-28 melanoma) was greater than 100 µM, the TGI (SW-620 colon) was greater than 100 µM and the TGI (OVCAR-4 ovarian) was greater than 100 µM. The TGI (OVCAR-5 ovarian) was greater than 100 µM.
In the case of `O=C1c2ccccc2C(=O)N1C(=S)c1ccccc1`, the TGI (MDA-N) is reported as greater than 100 µM, the TGI (BT-549 breast) is reported as greater than 100 µM and the TGI (PC-3 prostate) is reported as greater than 100 µM. For the same compound, the TGI (SNB-19 CNS) was greater than 100 µM, the TGI (OVCAR-3 ovarian) was greater than 100 µM and the TGI (HL-60(TB) leukemia) was greater than 100 µM. For the same compound, the TGI (SF-268 CNS) was greater than 100 µM, the TGI (SR leukemia) was greater than 100 µM and the TGI (HT29 colon) was greater than 100 µM. It also gave a TGI (MDA-MB-231 breast) greater than 100 µM, a TGI (RPMI-8226 leukemia) greater than 100 µM and a TGI (M14 melanoma) greater than 100 µM. The TGI (SK-MEL-28 melanoma) was greater than 100 µM, the TGI (SW-620 colon) was greater than 100 µM and the TGI (OVCAR-4 ovarian) was greater than 100 µM. For the same compound, the TGI (OVCAR-5 ovarian) was greater than 100 µM.
Work on `Clc1ccc(OCC2NC3C=CC32)cn1` (stereo unspecified) yielded a TGI (MDA-N) greater than 100 µM, a TGI (BT-549 breast) greater than 100 µM and a TGI (PC-3 prostate) greater than 100 µM. It also gave a TGI (SNB-19 CNS) greater than 100 µM, a TGI (OVCAR-3 ovarian) greater than 100 µM and a TGI (HL-60(TB) leukemia) greater than 100 µM. For the same compound, the TGI (SF-268 CNS) was greater than 100 µM, the TGI (SR leukemia) was greater than 100 µM and the TGI (HT29 colon) was greater than 100 µM. For the same compound, the TGI (MDA-MB-231 breast) was greater than 100 µM, the TGI (RPMI-8226 leukemia) was greater than 100 µM and the TGI (M14 melanoma) was greater than 100 µM. The TGI (SK-MEL-28 melanoma) was greater than 100 µM, the TGI (SW-620 colon) was greater than 100 µM and the TGI (OVCAR-4 ovarian) was greater than 100 µM. The TGI (OVCAR-5 ovarian) was greater than 100 µM.
Compound `O=c1c2cc(-c3ccccc3)cnc2sn1-c1ccc([N+](=O)[O-])cc1` has a TGI (MDA-N) greater than 100 µM, a TGI (BT-549 breast) greater than 100 µM and a TGI (PC-3 prostate) greater than 100 µM. For the same compound, the TGI (SNB-19 CNS) was greater than 100 µM, the TGI (OVCAR-3 ovarian) was 60.2 µM and the TGI (HL-60(TB) leukemia) was greater than 100 µM. The TGI (SF-268 CNS) was greater than 100 µM, the TGI (SR leukemia) was greater than 100 µM and the TGI (HT29 colon) was greater than 100 µM. It also gave a TGI (MDA-MB-231 breast) greater than 100 µM, a TGI (RPMI-8226 leukemia) greater than 100 µM and a TGI (M14 melanoma) greater than 100 µM. For the same compound, the TGI (SK-MEL-28 melanoma) was greater than 100 µM, the TGI (SW-620 colon) was greater than 100 µM and the TGI (OVCAR-4 ovarian) was greater than 100 µM. It also gave a TGI (OVCAR-5 ovarian) greater than 100 µM.
With `Sc1nnc(-c2ccccc2Nc2ccccc2-c2nnc(S)n2-c2ccccc2)n1-c1ccccc1` the TGI (MDA-N) was 85.3 µM, the TGI (BT-549 breast) was greater than 100 µM and the TGI (PC-3 prostate) was greater than 100 µM. For the same compound, the TGI (SNB-19 CNS) was greater than 100 µM, the TGI (OVCAR-3 ovarian) was greater than 100 µM and the TGI (HL-60(TB) leukemia) was 67.1 µM. For the same compound, the TGI (SF-268 CNS) was greater than 100 µM, the TGI (SR leukemia) was greater than 100 µM and the TGI (HT29 colon) was greater than 100 µM. The TGI (MDA-MB-231 breast) was 89.6 µM, the TGI (RPMI-8226 leukemia) was 48 µM and the TGI (M14 melanoma) was greater than 100 µM. The TGI (SK-MEL-28 melanoma) was 44.7 µM, the TGI (SW-620 colon) was 81.9 µM and the TGI (OVCAR-4 ovarian) was greater than 100 µM. It also gave a TGI (OVCAR-5 ovarian) greater than 100 µM.
